US20230364051A1, “FORMULATIONS AND METHODS FOR IMPROVING AVIAN HEALTH” (CORNELL UNIVERSITY, priority 2022, published 2023)
Marks after values point to notes of the source that are not given here.

Tests used:
[1] = maternal intake perinatally and throughout pregnancy, mice; cited from earlier work
[2] = Body weight and cecum weight at hatch after intraamniotic administration; type: in vivo, Gallus gallus; conditions: for Average Body Weight / Average Cecum Weight: day 17, at hatch
Protocol: (§1) Cornish-cross fertile broiler eggs (Gallus gallus, n = 39) were obtained from a commercial hatchery (Moyer’s chicks, Quakertown, PA, USA). The eggs were incubated under optimal conditions at the Cornell University Animal Science Poultry Farm Incubator [18]. All animal protocols were approved by Cornell University Institutional Animal Care and Use committee (IACUC #2020-0077). At day 17 of embryonic incubation, eggs containing viable embryos were weighed and divided into 5 groups, with all treatment groups assigned eggs of similar weight frequency distribution. Each group was then injected with the specific solution (1 mL per egg) with a 21-gauge needle into the amniotic fluid. Treatments in powder form were separately diluted in DI H2O. Two treatment groups (1.25, 2.5 wt. %), two controls (H2O and non-injected), and a positive control (5 wt. % inulin) were administered. After injection, the injection holes were sealed with cellophane tape and the eggs were placed in hatching baskets such that each treatment was equally represented at each incubator location. Immediately upon hatch (day 21), blood was taken for hemoglobin determination and all chicks were then euthanized by CO2 exposure. The small intestine, pectoral muscle, cecum, and liver were collected, immediately frozen in liquid nitrogen, and then stored in a -80° C. freezer until analysis.

hepcidin = conditions: human hepatocytes; cited from earlier work
duodenum = test: Duodenal tissue morphology examination (villi, crypts, goblet cells, Paneth cells); type: in vivo, Gallus gallus; conditions: for # Crypt Paneth Cells / Crypt Depth / Crypt Goblet Cell Diameter / Crypt Goblet Cell Number Acidic / Crypt Goblet Cell Number Mixture / Crypt Goblet Cell Number Neutral / Crypt Goblet Cell Number Total / Crypt Paneth cell Diameter / Villi Goblet Cell Diameter / Villi Goblet Cell Number Acidic / Villi Goblet Cell Number Mixture / Villi Goblet Cell Number Neutral / Villi Goblet Cell Number Total / Villus Height / Villus Surface Area / Villus Width: day 17, duodenum at hatch
Protocol: as §1, with “All animal protocols were approved by Cornell University Institutional Animal Care and Use committee (IACUC #2020-0077). At day 17 of embryonic incubation, eggs containing viable embryos were weighed and divided into 5 groups, with all treatment groups assigned eggs of similar weight frequency distribution.” left out, “Two treatment groups (1.25, 2.5 wt. %), two controls (H2O and non-injected), and a positive control (5 wt. % inulin) were administered.” left out
Intestinal morphology examination was performed as was previously described. Duodenum samples were fixed in fresh 4 wt. % (v/v) buffered formaldehyde, dehydrated, cleared, and embedded in paraffin. Serial sections were cut at 5 µm and placed on glass slides. Intestinal sections were deparaffinized in xylene, rehydrated in a graded alcohol series, stained with Alcian Blue/Periodic acid-Schiff, and examined by light microscopy. The following variables were measured in the intestine: villus height, villus width, crypt depth, Paneth cell number per crypt, Paneth cell width, goblet cell number, goblet cell diameter, types of goblet cells in the villi epithelium, and types of goblet cells within the crypts. Measurements in each segment were performed with a light microscope using CellSens Standard software (Olympus, Waltham, MA, USA).

[3] = 1.25 wt. % genistein intraamniotic
[4] = 2.5 wt. % genistein intraamniotic
[5] = 2.5 wt. % genistein vs no injection and H2O, p < 0.05
[6] = 2.5 wt. % vs 1.25 wt. % genistein, p < 0.05
[7] = both genistein treatment groups vs control groups, p < 0.05
[8] = genistein treatment groups (1.25, 2.5 wt. %) vs no injection, H2O and inulin, p < 0.05

Compound: O=c1c(-c2ccc(O)cc2)coc2cc(O)cc(O)c12 [Genistein, genistein]
- Harmful effects of a high-fat fed diet in dams and offspring [1]: mitigated
- Average Body Weight [2, 3]: 45.83 ± 0.99 ^ab g
- Average Cecum Weight [2, 3]: 0.50 ± 0.04 ^ab g
- Average Body Weight [2, 4]: 47.69 ± 1.30 ^a g
- Average Cecum Weight [2, 4]: 0.44 ± 0.03 ^b g
- Body weight vs control ([2]; 2.5 wt. % genistein vs non-injected group, p < 0.05): significantly higher
- Cecum weight of no injection and H2O groups compared to treated group ([2]; 2.5 wt. % genistein, p < 0.05): significantly greater values
- Hepcidin transcription levels and promoter activity (hepcidin): increased
- # Crypt Paneth Cells (duodenum; [3]): 2.92 ± 0.10 ^b
- Crypt Depth (duodenum; [3]): 26.36 ± 0.46 ^c µm
- Crypt Goblet Cell Diameter (duodenum; [3]): 2.89 ± 0.02 ^a µm
- Crypt Goblet Cell Number Acidic (duodenum; [3]): 8.51 ± 0.14 ^a Unit
- Crypt Goblet Cell Number Mixture (duodenum; [3]): 0.74 ± 0.06 ^d Unit
- Crypt Goblet Cell Number Neutral (duodenum; [3]): 0.00 ± 0.00 ^a Unit
- Crypt Goblet Cell Number Total (duodenum; [3]): 9.25 ± 0.14 ^ab Unit
- Crypt Paneth cell Diameter (duodenum; [3]): 1.78 ± 0.04 ^a µm
- Villi Goblet Cell Diameter (duodenum; [3]): 3.41 ± 0.03 ^b µm
- Villi Goblet Cell Number Acidic (duodenum; [3]): 23.49 ± 0.67 ^a Unit
- Villi Goblet Cell Number Mixture (duodenum; [3]): 1.69 ± 0.13 ^e Unit
- Villi Goblet Cell Number Neutral (duodenum; [3]): 0.09 ± 0.03 ^b Unit
- Villi Goblet Cell Number Total (duodenum; [3]): 25.26 ± 0.67 ^a Unit
- Villus Height (duodenum; [3]): 204.18 ± 3.73 ^b µm
- Villus Surface Area (duodenum; [3]): 146.97 ± 4.55 ^c mm2
- Villus Width (duodenum; [3]): 44.51 ± 0.86 ^c µm
- Crypt goblet cell diameter vs controls (duodenum; 1.25 wt. % genistein vs all control groups, p < 0.05): significantly greater
- Crypt Paneth cell diameter vs controls (duodenum; 1.25 wt. % genistein vs no injection and 5 wt. % inulin, p < 0.05): significantly (p < 0.05) higher
- Villus width vs controls (duodenum; 1.25 wt. % genistein vs no injection and H2O, p < 0.05): significantly (p < 0.05) greater
- # Crypt Paneth Cells (duodenum; [4]): 3.24 ± 0.11 ^a
- Crypt Depth (duodenum; [4]): 23.65 ± 0.46 ^d µm
- Crypt Goblet Cell Diameter (duodenum; [4]): 2.63 ± 0.02 ^b µm
- Crypt Goblet Cell Number Acidic (duodenum; [4]): 8.81 ± 0.19 ^a Unit
- Crypt Goblet Cell Number Mixture (duodenum; [4]): 0.88 ± 0.06 ^d Unit
- Crypt Goblet Cell Number Neutral (duodenum; [4]): 0.00 ± 0.00 ^a Unit
- Crypt Goblet Cell Number Total (duodenum; [4]): 9.68 ± 0.19 ^a Unit
- Crypt Paneth cell Diameter (duodenum; [4]): 1.65 ± 0.03 ^b µm
- Villi Goblet Cell Diameter (duodenum; [4]): 3.50 ± 0.03 ^a µm
- Villi Goblet Cell Number Acidic (duodenum; [4]): 22.01 ± 0.51 ^b Unit
- Villi Goblet Cell Number Mixture (duodenum; [4]): 2.70 ± 0.16 ^d Unit
- Villi Goblet Cell Number Neutral (duodenum; [4]): 0.19 ± 0.04 ^a Unit
- Villi Goblet Cell Number Total (duodenum; [4]): 24.89 ± 0.54 ^a Unit
- Villus Height (duodenum; [4]): 238.22 ± 3.17 ^a µm
- Villus Surface Area (duodenum; [4]): 184.13 ± 4.66 ^b mm2
- Villus Width (duodenum; [4]): 48.27 ± 0.87 ^b µm
- Crypt goblet cell diameter vs inulin (duodenum; 2.5 wt. % genistein vs 5 wt. % inulin): significantly higher
- Villus height vs controls (duodenum; [5]): significantly increased
- Villus surface area vs controls (duodenum; [5]): significantly increased
- Villus width vs controls (duodenum; [5]): significantly increased
- Villus height, dose comparison (duodenum; [6]): significantly higher
- Villus surface area, dose comparison (duodenum; [6]): significantly higher
- Villus width, dose comparison (duodenum; [6]): significantly higher
- Acidic villi goblet cell count vs controls (duodenum; [7]): significantly higher
- Neutral villi goblet cell count vs controls (duodenum; [7]): significantly higher
- Mixture villi goblet cells vs controls (duodenum; both genistein treatment groups vs controls, p < 0.05): significantly reduced
- Acidic crypt goblet cell count vs controls (duodenum; both genistein treatment groups vs no injection, H2O and inulin, p < 0.05): significantly higher
- Total crypt goblet cell count vs controls (duodenum; genistein exposure vs no injection and H2O, p < 0.05): significantly higher
- Mixed crypt goblet cells vs controls (duodenum; genistein exposure vs no injection, H2O and inulin, p < 0.05): significantly reduced
- Total number of villi goblet cells vs controls (duodenum; [8]): significantly higher
- Villi goblet cell diameter vs controls (duodenum; [8]): significantly higher
- Crypt depth vs control (duodenum; genistein treatment groups vs H2O-injection group, p < 0.05): significantly lower
- Number of crypt Paneth cells vs controls (duodenum; genistein treatment groups vs no injection, H2O and inulin, p < 0.05): significantly greater
